# How the values were obtained:
# Assay in all cases: relative viability (nuclei count vs DMSO), 5 days (fraction); higher = more cells survive
# [1] = compound: NC(=O)c1ccc(N(C(N)=O)c2c(F)cccc2F)nc1-c1ccc(F)cc1F [VX-702] + CS(=O)(=O)N1CCN(Cc2cc3nc(-c4cccc5[nH]ncc45)nc(N4CCOCC4)c3s2)CC1 [Pictilisib] (partner 1 µM)
# Procedure, shortened: (§1)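 For relative viability, nuclei counts in treated wells were divided by those in vehicle wells. Lung cancer cell lines had been pin-tool dosed in 1536-well plates the day after seeding and cultured for 5 days, then fixed and stained in one step (final 0.05% Triton X-100, 1% formaldehyde, 1 ug/ml Hoechst) and imaged at 4×. Doses were one drug alone or a fixed anchor-drug dose plus five library-drug doses (not always all listed) in √10 steps, and values are duplicate-plate medians.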
# [2] = compound: CC(C)(C)c1nc(-c2cccc(NS(=O)(=O)c3c(F)cccc3F)c2F)c(-c2ccnc(N)n2)s1 [Dabrafenib] + C[C@@H](Oc1cc(-c2cnn(C3CCNCC3)c2)cnc1N)c1c(Cl)ccc(F)c1Cl [Crizotinib] (partner 1 µM)
# Procedure, shortened: as §1
# [3] = compound: CC(C)(C)c1nc(-c2cccc(NS(=O)(=O)c3c(F)cccc3F)c2F)c(-c2ccnc(N)n2)s1 [Dabrafenib] + COc1cc2c(Oc3ccc(NC(=O)C4(C(=O)Nc5ccc(F)cc5)CC4)cc3F)ccnc2cc1OCCCN1CCOCC1 [Foretinib] (partner 0.25 µM)
# Procedure, shortened: as §1
# [4] = compound: CC(C)(C)c1nc(-c2cccc(NS(=O)(=O)c3c(F)cccc3F)c2F)c(-c2ccnc(N)n2)s1 [Dabrafenib] + C[C@]1(O)C[C@@H](c2nc(-c3ccc4ccc(-c5ccccc5)nc4c3)c3c(N)nccn32)C1 [Linsitinib] (partner 1 µM)
# Procedure, shortened: as §1
Cell Line,relative viability ([1]; first compound 0.02 µM),relative viability ([1]; first compound 0.2 µM),relative viability ([1]; first compound 0.6325 µM),relative viability ([1]; first compound 2 µM),relative viability ([2]; first compound 0.009487 µM),relative viability ([2]; first compound 0.03 µM),relative viability ([2]; first compound 0.09487 µM),relative viability ([2]; first compound 0.3 µM),relative viability ([3]; first compound 0.003 µM),relative viability ([3]; first compound 0.009487 µM),relative viability ([3]; first compound 0.03 µM),relative viability ([3]; first compound 0.09487 µM),relative viability ([3]; first compound 0.3 µM),relative viability ([4]; first compound 0.003 µM),relative viability ([4]; first compound 0.009487 µM),relative viability ([4]; first compound 0.03 µM),relative viability ([4]; first compound 0.09487 µM),relative viability ([4]; first compound 0.3 µM),relative viability ([2]; first compound 0.003 µM)
ChaGo-K-1,0.73,0.3,0.591,1.12,1.16,1.15,1.03,1.12,1.05,0.902,0.906,0.883,0.95,–,–,–,–,–,–
EBC-1,0.381,0.331,0.307,0.311,0.193,0.207,0.196,0.245,0.102,0.0889,0.103,0.0949,0.108,0.854,0.867,0.679,0.378,0.309,–
EKVX,0.408,0.351,0.35,0.358,1.12,0.783,0.702,1.01,0.457,0.603,0.793,0.886,0.987,0.997,1.17,0.933,0.866,1.13,0.875
EMC-BAC-2,0.547,0.555,0.508,0.432,0.749,0.678,0.672,0.828,1.01,1.01,0.766,0.924,1.06,0.773,0.825,0.616,0.838,0.851,0.859
EPLC-272H,0.321,0.303,0.33,0.353,1.17,0.784,0.976,0.83,0.671,0.811,0.619,0.587,0.738,–,1.36,1.02,0.939,0.918,–
H3255,0.553,0.48,0.462,0.479,1.19,0.954,0.873,0.906,0.688,0.897,1.09,0.667,0.839,0.944,1.06,1.01,0.832,1.03,0.968
HARA,0.361,0.412,0.325,0.332,1.04,1.01,0.855,1.11,0.907,0.906,–,0.78,0.972,0.973,0.869,0.841,0.905,1.3,0.975
HCC-15,0.731,0.644,0.643,0.749,0.881,0.832,0.75,0.827,0.944,1.07,1.08,0.852,1.03,0.851,0.996,0.917,0.821,0.951,0.906
HCC-44,0.726,0.552,0.479,0.522,0.785,0.847,0.718,0.794,–,–,–,–,–,0.624,0.706,0.822,0.605,0.701,0.769

# Reference: the supplement of paper PMC10307832
